The values below come from patent US5972955A, “Water soluble C-ring analogues of 20(S)-camptothecin” (Dr. Reddy's Research Foundation, priority 1996, dated 1999).

This assay deals with NCI's 60 human tumor cell line assay. As to the kind of experiment: NCI 60 human tumor cell line assay, mean growth inhibition (Table 1). The assay is classed as cell-based. The note with it: read-out: IC50 = the mean value of the minimum drug concentration of the agent required to produce 50% cell growth inhibition (GI50); mean over NCI's 60 human tumor cell lines; 48 h; Sulforhodamine B. The procedure:
Inoculates were allowed a preincubation period of 24 h at 37° C. for stabilization.
^a IC50 = the mean value of the minimum drug concentration (μm) of
NCI's 60 human tumor cell line assay.
Turning to `CC[C@@]1(O)C(=O)OCc2c1cc1n(c2=O)C(NCCN2CCCC2)c2cc3ccccc3nc2-1` (stereo partly drawn) [Example 15, 5-(Pyrrolidinoethylamino)camptothecin], the IC50 was over 30 µM. Consider `CC[C@@]1(O)C(=O)OCc2c1cc1n(c2=O)C(NCCN2CCOCC2)c2cc3c(OC)cccc3nc2-1` (stereo partly drawn) [9-Methoxy-5-morphilinoethylamino CPT], for which the IC50 is over 30 µM.

Turning to `CC[C@@]1(O)C(=O)OCc2c1cc1n(c2=O)C(NCC(O)CO)c2cc3c(OC)cccc3nc2-1` (stereo partly drawn) [Example 9], the IC50 came out at 6.6 µM.

Regarding `CC[C@@]1(O)C(=O)OCc2c1cc1n(c2=O)C(NCCCCO)c2cc3c(OC)cccc3nc2-1` (stereo partly drawn) [Example 10, 5-(4'-hydroxybutylamino)-9-methoxycamptothecin], the IC50 turned out to be 13.1 µM. Turning to `CC[C@@]1(O)C(=O)OCc2c1cc1n(c2=O)C(NCCN2CCCC2)c2cc3c(OC)cccc3nc2-1` (stereo partly drawn) [9-Methoxy-5-pyrrolidinoethylamino CPT], the IC50 turned out to be 31.6 µM. As to `CCN(CC)CCNC1c2cc3c(OC)cccc3nc2-c2cc3c(c(=O)n21)COC(=O)[C@]3(O)CC` (stereo partly drawn) [9-Methoxy-5-(N,N-diethylethylenediamino) CPT], the IC50 turned out to be 19.1 µM.

As for `CC[C@@]1(O)C(=O)OCc2c1cc1n(c2=O)C(NCCN(C)C)c2cc3ccccc3nc2-1` (stereo partly drawn) [Example 4, 5-(N,N-Dimethylethylenediamino)camptothecin], the IC50 was over 30 µM. On to `CC[C@@]1(O)C(=O)OCc2c1cc1n(c2=O)C(NCCCl)c2cc3ccccc3nc2-1` (stereo partly drawn) [Example 6, 5-(2'-chloroethylamino)camptothecin], for which the IC50 stood at 19 µM. In the case of `CC[C@@]1(O)C(=O)OCc2c1cc1n(c2=O)C(NCCN(C)C)c2cc3c(OC)cccc3nc2-1` (stereo partly drawn) [Example 7, 5-(N,N-Dimethylethylenediamino)-9-methoxycamptothecin], the IC50 was found to be 9.54 µM. The value for `CCN(CC)CCCNC1c2cc3c(OC)cccc3nc2-c2cc3c(c(=O)n21)COC(=O)C3(O)CC` (stereo not drawn) [9-Methoxy-5-(N,N-diethylpropylenediamino) CPT] was 8.31 µM; that for `CC[C@@]1(O)C(=O)OCc2c1cc1n(c2=O)C(NCCN2CCCCC2)c2cc3ccccc3nc2-1` (stereo partly drawn) [Example 16, 5-(Piperidinoethylamino)camptothecin] was 23.4 µM; that for `CC[C@@]1(O)C(=O)OCc2c1cc1n(c2=O)C(NCCN2CCCCC2)c2cc3c(OC)cccc3nc2-1` (stereo partly drawn) [9-Methoxy-5-piperidinoethylamino CPT] was 28.1 µM.
